Patent US7427416B2, “Methods of treating conditions using metal-containing materials” (Nucryst Pharmaceuticals Corp., priority 2000, dated 2008)
Where “and” joins values, the source holds several entries; their conditions need not be identical. Equal entries are not always repeated.

How the values were obtained:
[1] = tested on: Pseudomonas aeruginosa strain 5588 infected lungs; assay: nebulized forms of silver in rats, gross lung score; type: in vivo, rat; settings: after 24 h, nebulized solutions (400 ppm; colloidal silver 20 ppm)
Experimental: A solution was prepared by sparging CO2 through 1000 ml of reverse osmosis water using commercial CO2 Soda Syphon Charger. This process results in the pH of the water dropping to about 4. At this point, approximately 333 ml of the carbonated water was decanted into a plastic bottle and 333 square inches of nanocrystalline silver-coated net was added to the water. The nanocrystalline silver-coated net and water were placed in 37° C. shaker incubator and shaken at 180 RPM for 30 minutes to elevate the pH to approximately 5.8. The solution was then transferred to a beaker and stirred vigorously for 2 minutes to raise the pH to approximately at 7.3.
A colloidal silver solution (20 ppm) in was obtained from a commercial source.
The dissolution solutions were transferred to commercial nebulizers which were connected to a Medical air cylinder with a flow rate of approx. 20 L/min. The outflows of the nebulizers were connected to an animal chamber housing the rats to be dosed. All rats (40 randomly assigned animals) received the dosing. The rats received two —½ hour aerosol administrations of the test solutions on the day of infection. […]
All rats of each group of animals were sacrificed after 24 h. […] Lungs were grossly scored (absent=0, mild=1, moderate=2, and severe=3) based on the degree of involvement of consolidation, hemorrhage, edema and necrosis based upon gross observation.

[2] = tested on: Staphylococcus aureus; assay: aerosol of silver solutions on streaked agar plates; type: cell-based; set-up: key to Growth at 16 h (0−++++) / Growth at 48 h (0−++++): (0−++++); (0−++++); (0−++++); (0−++++); settings: for Growth at 16 h (0−++++) / Growth at 48 h (0−++++): aerosol 53 minutes
Experimental: (§1) The solutions were in turn placed in an ultrasonic nebulizer that created small droplets containing dissolved and suspended parts of the silver solution. The output from the nebulizer was directed into a chamber made from a stainless steel frame and base. Petri dishes containing Mueller Hinton agar streaked with 4 h old cultures of Pseudomonas aeruginosa and Staphylococcus aureus, were exposed to the silver solution aerosols and the silver nitrate aerosols.
(§2) The method used for the current tests was the mechanical method in the form of an ultrasonic nebulizer. For convenience an ultrasonic humidifier was used. The liquid containing the dissolved and suspended silver from the dressing of Example 1 was placed in the water reservoir of the humidifier. When power was applied to the humidifier aerosol droplets of dissolved and suspended silver were generated and flowed from the output nozzle.
(§3) A test chamber was constructed using a stainless steel frame with a transparent plastic covering. The frame was placed on a stainless steel base plate. The output nozzle from the humidifier was modified so that the aerosol could be directed into the chamber at a height of approximately 30 cm from the base. The plates and other test samples were placed on the stainless steel plate and exposed to the aerosol for a prescribed length of time.
(§4) Petri dishes, containing Mueller Hinton agar, were streaked with 4 h old cultures of Pseudomonas aeruginosa or Staphylococcus aureus. The plates were then weighed and their exposed outer surfaces were coated with Parafilm to prevent condensation from occurring on these surfaces. These plates were placed in the aerosol chamber uncovered. The ultrasonic nebulizer was then started and run for 53 minutes. The plates were then removed from the chamber, the plastic was removed and the dishes re-weighed so that the amount of moisture loss/gain could be determined.
(§5) The plates were then placed in a 35° C. incubator for 16 h. After incubation the pattern and amount of growth was assessed on the plates for both organisms.
(§6) Three of the six plates made for each organism were tested to determine if the antimicrobial effect was cidal or static in nature. This was accomplished by rinsing or placing a piece of the clear section of agar in the Petri dish plates into Tryptic soy broth in a test tube and incubating for 4 h or 16 h. If the medium turned turbid in 4 h it would indicate that the antimicrobial affect was bacteriostatic in nature. If the organisms took more than 16 h to grow, as indicated by turbidity, it was considered an indication that both static and cidal effects occurred. If no growth occurred the effect was bactericidal.
as §1, with “the solution of nanocrystalline noble metal-containing material.” for “the silver solution.”, “Pseudomonas aerugiona” for “Pseudomonas aeruginosa”, “Staphylococcus aureus” for “Staphylococcus aureus,”, “to nanocrystalline noble metal” for “to the silver solution”
(§7) The method used to create an aerosol for these tests was the mechanical method in the form of an ultrasonic nebulizer. For convenience, an ultrasonic humidifier was used. The liquid containing the dissolved and suspended antimicrobial metal-containing material with atomic disorder was placed in the water reservoir of the humidifier. When power was applied to the humidifier, aerosol droplets of dissolved and suspended antimicrobial metal-containing material with atomic disorder were generated and flowed from the output nozzle.
(§8) A test chamber was constructed using a stainless steel frame with a transparent plastic covering. The frame was placed on a stainless steel plate.

[3] = tested on: Pseudomonas aeruginosa; assay: as above; type: cell-based; set-up: key to Growth at 16 h (0−++++) / Growth at 48 h (0−++++): (0−++++); (0−++++); (0−++++); (0−++++); settings: for Growth at 16 h (0−++++) / Growth at 48 h (0−++++): aerosol 53 minutes; for Viable 4 h / Viable 16 h: regrowth in Tryptic soy broth
Experimental: as §1, §2, §3, §4, §5, §6
as §1, with “the solution of nanocrystalline noble metal-containing material.” for “the silver solution.”, “Pseudomonas aerugiona” for “Pseudomonas aeruginosa”, “Staphylococcus aureus” for “Staphylococcus aureus,”, “to nanocrystalline noble metal” for “to the silver solution”
as §7, §8

[4] = tested on: Pseudomonas infected lungs; assay: rat lung infection, histopathology of lung samples; type: in vivo; settings: for Consol Score / Inflam Score: 0=normal to 4 very severe
Experimental: A solution form nanocrystalline silver coated dressings (AgHDPE) from Example 1 was prepared by sparging CO2 through 1000 ml of reverse osmosis water using commercial CO2 Soda Syphon Charger. […] At this point, approximately 333 ml of the carbonated water was decanted into a plastic bottle and 333 square inches of nanocrystalline silver-coated net was added to the water. The nanocrystalline silver-coated net and water were placed in 37° C. shaker incubator and shaken at 180 RPM for 30 minutes to elevate the pH to approximately 5.8. The solution was then transferred to a beaker and stirred vigorously for 2 minutes to raise the pH to approximately at 7.3. The dissolution solution was transferred to a commercial nebulizer which was connected to a medical air cylinder with a flow rate of approx. 20 L/min. The outflow of the nebulizer was connected to a animal chamber housing the rats to be dosed. Only the “test” rats (12 randomly assigned animals) received the dosing. The rats received two —½ hour aerosol administrations of the test solution on the day of infection. Thereafter, the test rats were dosed 3 times per day for an additional one and a half days.
The bacteria used for infection of these animals were Pseudomonas aeruginosa strain 5588. The dose was previously titrated to ascertain that a dose of up to 10^9 CFU was not lethal for the animals. The bacteria were grown overnight in Tryptic soy broth, washed once in sterile PBS and resuspend in sterile PBS. The final concentration of the inoculum was 4×10^9 CFU/ml.
The rats were anesthetized by inhalation of 2% halothane. A 400 microliter volume of bacterial suspension was intratracheally administered in the bronchi of each rat. This was performed non-surgically on intubated animals.
Histopathology was scored (0-4) based upon the degree of consolidation and inflammation (neutrophil infiltration). The entire right middle lobes of all rats were collected for histopathology. As whole lobes were selected there was no bias toward any sample. All samples were fixed in neutral buffered formalin at the time the lung was removed from the thorax. It was fixed overnight, dehydrated and embedded in was. Sections were obtained which were hydrated and stained with haematoxylin and eosin.
All sections were examined by a veterinary pathologist who was blinded to the treatment groups, until after the samples were scored and comments were provided. (0=normal, 1=slight, 2 moderate, 3 severe, 4 very severe).

[5] = tested on: Pseudomonas infected lungs; assay: rat lung infection, gross lung score; type: in vivo; settings: individual animals, absent=0, mild=1, moderate=2, severe=3
Experimental: A solution form nanocrystalline silver coated dressings (AgHDPE) from Example 1 was prepared by sparging CO2 through 1000 ml of reverse osmosis water using commercial CO2 Soda Syphon Charger. […] At this point, approximately 333 ml of the carbonated water was decanted into a plastic bottle and 333 square inches of nanocrystalline silver-coated net was added to the water. The nanocrystalline silver-coated net and water were placed in 37° C. shaker incubator and shaken at 180 RPM for 30 minutes to elevate the pH to approximately 5.8. The solution was then transferred to a beaker and stirred vigorously for 2 minutes to raise the pH to approximately at 7.3. The dissolution solution was transferred to a commercial nebulizer which was connected to a medical air cylinder with a flow rate of approx. 20 L/min. The outflow of the nebulizer was connected to a animal chamber housing the rats to be dosed. Only the “test” rats (12 randomly assigned animals) received the dosing. The rats received two —½ hour aerosol administrations of the test solution on the day of infection. […]
On each day, six rats of each group of animals were sacrificed. […] Lungs were grossly scored (absent=0, mild=1, moderate=2, and severe=3) based on the degree and involvement of consolidation, hemorrhage, edema and necrosis based upon gross observation.

[6] = Solutions 1 and 3: Ag 85 (dressing) / 99 (AgNO3) μg/ml
[7] = Solutions 1 and 3: Ag 85 / 99 μg/ml
[8] = Solutions 1 and 3: Ag 85 / 99 μg/ml, regrowth in Tryptic soy broth
[9] = Solutions 2 and 4: Ag 370 (dressing) / 300 (AgNO3) μg/ml
[10] = Solutions 2 and 4: Ag 370 / 300 μg/ml

**Q.** `O=[N+]([O-])[O-].[Ag+]` [AgNO3, silver nitrate] was tested. Which “gross score of lungs” value [1] did it give?
**A.** moderately to severely inflamed

**Q.** And the “Growth at 16 h (0−++++)” value [2, 6]?
**A.** 0

**Q.** What about the “Growth at 16 h (0−++++)” value ([2]; Solutions 1 and 3: Ag 85 (dressing) / 99 (AgNO3) μg/ml, listed as AgNo3) of the same compound?
**A.** ++++

**Q.** And the “Growth at 48 h (0−++++)” value [2, 7]?
**A.** ++++

**Q.** And the “Viable 4 h” value [2, 8]?
**A.** No

**Q.** And the “Viable 16 h” value [2, 8]?
**A.** Yes

**Q.** What about the “Viable 4 h” value ([2]; Solutions 1 and 3: Ag 85 / 99 μg/ml, regrowth in Tryptic soy broth, listed as AgNo3) of the same compound?
**A.** Yes

**Q.** What about the “Growth at 16 h (0−++++)” value [2, 9] of the same compound?
**A.** 0

**Q.** What about the “Growth at 48 h (0−++++)” value [2, 10] of the same compound?
**A.** +++

**Q.** And the “Viable 4 h” value ([2]; Solutions 2 and 4: Ag 370 / 300 μg/ml, regrowth in Tryptic soy broth)?
**A.** No

**Q.** And the “Growth at 16 h (0−++++)” value [3, 6]?
**A.** 0

**Q.** And the “Growth at 48 h (0−++++)” value [3, 7]?
**A.** 0

**Q.** What about the “Viable 4 h” value [3, 7] of the same compound?
**A.** No

**Q.** What about the “Viable 16 h” value [3, 7] of the same compound?
**A.** No

**Q.** What about the “Viable 16 h” value ([3]; Solutions 1 and 3: Ag 85 / 99 μg/ml, listed as AgNo3) of the same compound?
**A.** Yes

**Q.** And the “Growth at 16 h (0−++++)” value [3, 9]?
**A.** 0

**Q.** And the “Growth at 48 h (0−++++)” value [3, 10]?
**A.** 0

**Q.** What about the “Viable 4 h” value [3, 10] of the same compound?
**A.** No

**Q.** And the “Viable 16 h” value [3, 10]?
**A.** No

**Q.** What does the source list for `NC[C@H]1O[C@H](O[C@H]2[C@H](O)[C@@H](O[C@H]3O[C@H](CO)[C@@H](O)[C@H](N)[C@H]3O)[C@H](N)C[C@@H]2N)[C@H](N)C[C@@H]1O` [Tobramycin]?
**A.** Comments (histopathology) ([4]; Time 24): Severe infiltration of PMNs into interstitial spaces.; Consol Score ([4]; Time 24): 3; Inflam Score ([4]; Time 24): 3; Comments (histopathology) ([4]; Time 48): Severe infiltration of PMNs into interstitial spaces.; Involvement of sample ([4]; Time 48): in affected areas. Involvement of 70% of sample.; Consol Score ([4]; Time 48): 3; Inflam Score ([4]; Time 48): 3; gross lung score ([5]; 24 h): 2 (3×) and 3 (2×) and 1; gross lung score ([5]; 48 h): 1 (4×) and 2 and Dead
